Key:
[1] = tested on: memory power of rats (object recognition); assay: Object recognition test; format: in vivo; settings: oral 1.0, 3.0 or 10 mg/kg in Tylose immediately after first passage, second passage 24 hours later
Description: The object recognition test is a memory test. It measures the ability of rats (and mice) to differentiate between known and unknown objects.
The test was carried out as described (Blokland et al. NeuroReport 1998, 9, 4205-4208; Ennaceur, A., Delacour, J., Behav. Brain Res. 1988, 31, 47-59; Ennaceur, A., Meliani, K., Psychopharmacology 1992, 109, 321-330; Prickaerts, et al. Eur. J. Pharmacol. 1997, 337, 125-136).
In a first passage, a rat is confronted with two identical objects in an otherwise empty relatively large observation arena. The rat will investigate, i.e. sniff and touch, both objects thoroughly. In a second passage, after an interval of 24 hours, the rat is again placed in the observation arena. One of the known objects is now replaced by a new, unknown object. If a rat recognizes the known object, it will especially investigate the unknown object. After 24 hours, however, a rat has normally forgotten which object it has already investigated in the first passage, and will therefore inspect both objects to the same extent. […] It will investigate the new, unknown object in more detail than the already known one. This memory power is expressed in a discrimination index. […]

[2] = tested on: memory capability of mice; settings: avoidance test; cited from earlier work

Row | SMILES | memory power in the second passage compared with the control condition [1] | action on the memory capability [2]
1 | CCCc1nc(C)c2c(=O)[nH]c(-c3cc(S(=O)(=O)N4CCN(C)CC4)ccc3OCC)nn12 [Example 1, 2-[2-ethoxy-5-(4-methyl-piperazine-1-sulphonyl)-phenyl]-5-methyl-7-propyl-3H-imidazo[5,1-f][1,2,4]triazin-4-one] | improved | 
2 | CCCc1nn(C)c2c(=O)[nH]c(-c3cc(S(=O)(=O)N4CCN(C)CC4)ccc3OCC)nc12 [Sildenafil, 5-[2-ethoxy-5-(4-methylpiperazin-1-ylsulphonyl)phenyl]1,6-dihydro-1-methyl-3-propylpyrazolo[4,3-d]pyrimidin-7-one] |  | improving action
